Assay [1] can be described thus: Inhibition of anthranilate synthase.
Assay [2] is described as follows: Inhibition of Arabidopsis 4-hydroxyphenylpyruvate dioxygenase.
The target in assay [3] is 4-hydroxyphenylpyruvate dioxygenase (Rattus norvegicus, UniProt P32755). Briefly: Inhibition of rat 4-hydroxyphenylpyruvate dioxygenase.

Bounds are passed on as bounds.

Sequence of 4-hydroxyphenylpyruvate dioxygenase (P32755 whole entry): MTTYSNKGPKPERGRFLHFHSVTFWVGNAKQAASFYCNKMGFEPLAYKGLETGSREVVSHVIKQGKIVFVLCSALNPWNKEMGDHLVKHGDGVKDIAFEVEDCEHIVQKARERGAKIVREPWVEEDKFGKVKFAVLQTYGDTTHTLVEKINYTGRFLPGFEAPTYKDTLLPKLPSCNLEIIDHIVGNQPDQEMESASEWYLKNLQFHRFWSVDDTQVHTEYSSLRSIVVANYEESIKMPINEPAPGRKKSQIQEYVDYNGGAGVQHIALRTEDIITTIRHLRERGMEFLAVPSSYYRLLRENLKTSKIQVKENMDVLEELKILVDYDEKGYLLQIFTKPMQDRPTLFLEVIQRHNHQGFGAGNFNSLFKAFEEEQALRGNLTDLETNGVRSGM

`O=C(O)COc1ccccc1/C=N/OCc1cc(Cl)ccc1Cl` displayed an IC50 in assay [1] of 3.2 µM.

The compound `O=C(O)c1cccc(/C(=N/OCCc2ccc(Cl)cc2)c2cccc(C(F)(F)F)c2)c1` showed an IC50 in assay [1] of 3.2 µM.

For `O=C(NCCCCC1C(=O)/C(=C(\O)C2CC2)C(=O)N1Cc1ccc(F)cc1)c1ccc(Cl)nc1` (stereo unspecified), the IC50 in assay [2] worked out at 0.02 µM; in assay [3], 3.9 µM.

Consider `O=C(NCCCCC1C(=O)/C(=C(\O)C2CCC2)C(=O)N1Cc1ccccc1)Nc1cccc(Cl)c1` (stereo unspecified), for which the IC50 was 0.158 µM in assay [2] and ≥ 10 µM in assay [3].

Usually IC50 stands for the midpoint of a concentration-inhibition curve. Read a low IC50 as greater potency.
